According to US20250099448A1, “HETEROCYCLIC COMPOUNDS” (Hoffmann-La Roche Inc., priority 2022, published 2025):

Biological target: T1, MAGL protein (Homo sapiens, UniProt Q99685)
T1 sequence (Q99685 1-303): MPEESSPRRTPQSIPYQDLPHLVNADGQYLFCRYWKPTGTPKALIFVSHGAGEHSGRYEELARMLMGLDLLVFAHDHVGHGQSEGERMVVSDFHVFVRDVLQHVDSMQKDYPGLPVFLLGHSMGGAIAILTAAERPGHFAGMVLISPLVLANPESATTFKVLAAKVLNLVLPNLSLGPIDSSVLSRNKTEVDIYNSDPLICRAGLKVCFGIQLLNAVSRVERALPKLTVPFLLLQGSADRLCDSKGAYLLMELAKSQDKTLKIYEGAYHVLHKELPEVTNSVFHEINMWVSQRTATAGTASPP
Experiment: 2-AG assay: MAGL inhibitory activity by hydrolysis of 2-arachidonoylglycerol to arachidonic acid, followed by mass spectrometry
Type: biochemical
Conditions: 8 μM 2-arachidonoylglycerol, 15 min preincubation, 30 min reaction at RT, RapidFire MS readout
Procedure, shortened: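 MAGL was preincubated 15 min at RT with compound (12.5 to […], 3-fold steps) in 50 mM TRIS, 1 mM EDTA, 0.01% Tween-20, 2.5% DMSO. The reaction ran 30 min at RT with 8 μM 2-AG. Arachidonic acid was quantified by RapidFire SPE-MS/MS against a d8-arachidonic acid internal standard.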

SMILES | IC50
O=C(N1CC2(CC(c3nnc(C4CC4)[nH]3)C2)C1)N1CC2(CC(N3CC(CC(F)(F)F)C3)C2)C1 [compound 84] | 32.7 nM
O=C(N1CC2(CC(Cc3ccc(F)cn3)C2)C1)N1CC2(CC(c3nnc(C4CC4)[nH]3)C2)C1 [compound 43] | 0.58 nM
O=C(N1CC(c2ccc(C3(C(F)(F)F)CC3)nn2)C1)N1CC2(CC(c3nnc(C4CC4)[nH]3)C2)C1 [compound 234] | 139 nM
CS(=O)(=O)c1cccc(CC2CC3(C2)CN(C(=O)N2CC4(CC(c5nnc(C6(O)CC6)[nH]5)C4)C2)C3)c1 [compound 16] | 1.51 nM
O=C(N1CC(c2ccc(N3CC(O)(C(F)(F)F)C3)nc2)C1)N1CC2(CC(c3nnc(C4CC4)[nH]3)C2)C1 [compound 275] | 2.07 nM
Cn1nc(C(F)(F)F)cc1CC1CC2(C1)CN(C(=O)N1CC3(CC(c4nc(C5(O)CC5)n[nH]4)C3)C1)C2 [compound 775] | 2.01 nM
O=C(N1CC(c2ccc(-c3nnc(C4(C(F)(F)F)CC4)[nH]3)cc2)C1)N1CC2(CC(c3nc(C4CC4)n[nH]3)C2)C1 [compound 377] | 4.29 nM
O=C(N1CC2(CC(Cc3ccc(C(F)(F)F)nc3)C2)C1)N1CC2(CC(c3nnc(C4(O)CC4)[nH]3)C2)C1 [compound 6] | 1.15 nM
O=C(N1CC2(CC(Cc3ccc(S(=O)(=O)C(F)(F)F)cn3)C2)C1)N1CC2(CC(c3nc(C4(F)CC4)n[nH]3)C2)C1 [compound 652] | 0.19 nM
O=C(N1CC(c2ccc(N3CC(C(F)(F)F)C3)nc2)C1)N1CC2(CC(c3nnc(C4(O)CC4)[nH]3)C2)C1 [compound 259] | 3.63 nM
O=C(N1CC(C23CC(c4ccc(S(=O)(=O)C(F)(F)F)cc4)(C2)C3)C1)N1CC2(CC(c3nc(C4CC4)n[nH]3)C2)C1 [compound 540] | 0.05 nM
O=C(N1CC2(CC(Cc3nnc(C4(C(F)(F)F)CC4)o3)C2)C1)N1CC2(CC(c3nc(C4(F)CC4)n[nH]3)C2)C1 [compound 792] | 1.98 nM
Cc1cc(C2CC2)n(C23CC(C4CN(C(=O)N5CC6(CC(c7nc(C8CC8)n[nH]7)C6)C5)C4)(C2)C3)n1 [compound 587] | 2.4 nM
O=C(N1CC2(CC(c3nnc(C4CC4)[nH]3)C2)C1)N1CC2(CC(c3ccc(C(F)(F)F)cc3F)C2)C1 [compound 938] | 0.29 nM
CCOc1cc(C)n(-c2ccc(C3CN(C(=O)N4CC5(CC(c6nnc(C7CC7)[nH]6)C5)C4)C3)cc2)n1 [Example 559, [6-(5-cyclopropyl-4H-1,2,4-triazol-3-yl)-2-azaspiro[3.3]heptan-2-yl]-[3-[4-(3-ethoxy-5-methyl-pyrazol-1-yl)phenyl]azetidin-1-yl]methanone] | 0.46 nM
O=C(N1CC2(CC(Cc3ccc(C(F)(F)F)nn3)C2)C1)N1CC2(CC(c3nc(C4(F)CC4)n[nH]3)C2)C1 [compound 460] | 2.64 nM
CS(=N)(=O)c1cccc(CC2CC3(C2)CN(C(=O)N2CC4(CC(c5nc(C6CC(F)(F)C6)n[nH]5)C4)C2)C3)c1 (stereo not drawn) [compound 493] | 956 nM
N#Cc1cc(Cl)cnc1OCC1CCN(C(=O)N2CC3(CC(c4nc(C5CC5)n[nH]4)C3)C2)CC1 [Example 908] | 56.6 nM
N=S(=O)(c1ccc(COC2CN(C(=O)N3CC4(CC(c5nc(C6CC6)n[nH]5)C4)C3)C2)c(F)c1)C(F)(F)F (stereo not drawn) [Example 632, [6-(3-cyclopropyl-1H-1,2,4-triazol-5-yl)-2-azaspiro[3,3]heptan-2-yl]-[3-[2-fluoro-4-(trifluoromethylsulfonimidoyl)benzyl]oxyazetidin-1-yl]methanone] | 12.3 nM
O=C(N1CC(c2noc(C3(C(F)(F)F)CC3)n2)C1)N1CC2(CC(c3nnc(C4CC4)[nH]3)C2)C1 [compound 246] | 66.8 nM
O=C(N1CC(NS(=O)(=O)c2cccc(C(F)(F)F)c2)C1)N1CC2(CC(c3nnc(C4CC4)[nH]3)C2)C1 [compound 202] | 332 nM
O=C(N1CC2(CC(Cc3ncc(C(F)(F)F)cn3)C2)C1)N1CC2(CC(c3nc(C4(F)CC4)n[nH]3)C2)C1 [compound 647] | 0.97 nM
O=C(N1CC2(CCC(Cc3ncc(F)cc3F)C2)C1)N1CC2(CC(c3nc(C4(O)CC4)n[nH]3)C2)C1 (stereo not drawn) [compound 929] | 3.85 nM
O=C(N1CCC(c2nn(C[C@@H](O)C(F)(F)F)c3ccc(Cl)cc23)CC1)N1CC2(CC(c3nnc(C4CC4)[nH]3)C2)C1 [Example 865, [4-[5-chloro-1-[(2R)-3,3,3-trifluoro-2-hydroxy-propyl]indazol-3-yl]piperidino]-[6-(5-cyclopropyl-4H-1,2,4-triazol-3-yl)-2-azaspiro[3.3]heptan-2-yl]methanone] | 19.4 nM
O=C(N1CC2(CC(c3nnc(C4CC4)[nH]3)C2)C1)N1CC2(CC(C(F)(F)c3ccc(C(F)(F)F)nc3)C2)C1 [compound 826] | 0.56 nM
CNc1nnc(-c2ccc(C3CN(C(=O)N4CC5(CC(c6nnc(C7CC7)[nH]6)C5)C4)C3)cc2)s1 [Example 600, [6-(5-cyclopropyl-4H-1,2,4-triazol-3-yl)-2-azaspiro[3.3]heptan-2-yl]-[3-[4-[5-(methylamino)-1,3,4-thiadiazol-2-yl]phenyl]azetidin-1-yl]methanone] | 4.25 nM
O=C(N1CC2(CC(Cc3cc(F)cc(S(=O)(=O)C(F)(F)F)c3)C2)C1)N1CC2(CC(c3nc(C4(O)CC4)n[nH]3)C2)C1 [compound 518] | 0.22 nM

More lines, now with the values ahead:

IC50 | SMILES
5.55 nM | O=C(N1CC2(CC(Cn3cc(C(F)(F)F)cn3)C2)C1)N1CC2(CC(c3nc(C4(O)CC4)n[nH]3)C2)C1 [compound 671]
1.71 nM | CP(C)(=O)c1cc(F)cc(CC2CC3(C2)CN(C(=O)N2CC4(CC(c5nc(C6CC6)n[nH]5)C4)C2)C3)c1 [compound 680]
109 nM | Cc1nn(CC(F)(F)F)cc1CN1CC2(C1)CN(C(=O)N1CC3(CC(c4nc(C5CC5)n[nH]4)C3)C1)C2 [compound 440]
5.84 nM | O=C(N1CC2(CCN(Cc3ncc(C(F)F)s3)CC2)C1)N1CC2(CC(c3nc(C4CC4)n[nH]3)C2)C1 [compound 507]
1.2 nM | O=C(N1CC2(CC(Cn3cnc(C4(C(F)(F)F)CC4)n3)C2)C1)N1CC2(CC(c3nc(C4CC4)n[nH]3)C2)C1 [compound 787]
31.9 nM | O=C(N1CC2(CC(c3nc(C4CC4)n[nH]3)C2)C1)N1CC2(CN(Cc3cnn(C(F)(F)F)c3)C2)C1 [compound 513]
1.17 nM | O=C(N1CC2(CC(Cc3cc(C(F)(F)F)ncn3)C2)C1)N1CC2(CC(c3nc(C4CC4)n[nH]3)C2)C1 [compound 400]
6.2 nM | O=C(N1CC2(CC(Cn3cc(C(F)(F)F)ccc3=O)C2)C1)N1CC2(CC(c3nc(C4(O)CC4)n[nH]3)C2)C1 [compound 417]
36.5 nM | N=S(=O)(c1ccc(CC2CC3(C2)CN(C(=O)N2CC4(CC(c5nc(C6COC6)n[nH]5)C4)C2)C3)cc1)C(F)(F)F (stereo not drawn) [compound 830]
0.09 nM | O=C(N1CC2(CC(Cc3n[nH]cc3C(F)(F)F)C2)C1)N1CC2(CC(c3nc(C4CC4)n[nH]3)C2)C1 [compound 747]
0.02 nM | O=C(N1CC2(CC(Cc3ccc(OC(F)(F)F)cc3)C2)C1)N1CC2(CC(c3nc(C4CC4)n[nH]3)C2)C1 [compound 857]
9.12 nM | O=C(N1CC(C23CC(Cn4ccc(C(F)(F)F)cc4=O)(C2)C3)C1)N1CC2(CC(c3nc(C4CC4)n[nH]3)C2)C1 [compound 947]
